From patent publication US11266711B2, “Oxytocin compositions and methods of use” (Elgan Pharma Ltd, priority 2018, dated 2022)
Structures can show the parent of a compound that is named as a salt. Numbered stars: 1 amine (or outer) side, 2 acyl side, 3 side chain; on linkers, the order of the positions; unused ones are H or OH. Bridge positions count the residues as written; N and C are the ends. Peptide text beside a SMILES is read from it. X1 = O=C(CCC[*:2])[*:1]

What was measured:
[1] = test system: rat pups chronically exposed to fluoxetine prenatally; assay: Survival and body weight, rat pups exposed to fluoxetine prenatally (Example 4); type: in vivo, Sprague-Dawley rats; conditions: 2 mg/kg s.c. daily
[2] = test system: rat pups chronically exposed to diazepam prenatally; assay: Locomotor activity during withdrawal, rats exposed to diazepam prenatally (Example 11)
Procedure: Briefly, locomotor activity is measured by placing an animal in to a small standardized test chamber for a five-minute period. Distance travelled, and time spent active is measured automatically using a SmartCage™.

[3] = test system: rat pups chronically exposed to morphine prenatally; assay: Naloxone-induced withdrawal in rat pups exposed to morphine prenatally (Example 1); type: in vivo, Sprague-Dawley rats
[4] = test system: adolescent rats chronically exposed to morphine prenatally; assay: Light-Dark Box, adolescent rats exposed to morphine prenatally (Example 8); type: in vivo; conditions: 0.3 mg/kg s.c. daily, first 10 postnatal days; tested postnatal days 31-35; vs saline (FIG. 8a)
[5] = test system: adolescent rats chronically exposed to diazepam prenatally; assay: Light-Dark Box, adolescent rats exposed to diazepam prenatally (Example 12); conditions: 1 mg/kg and 2 mg/kg s.c., first 10 postnatal days; tested postnatal days 31-35; vs saline (FIG. 12a)
[6] = test system: adolescent rats chronically exposed to fluoxetine prenatally; assay: Light/Dark Box, adolescent rats exposed to fluoxetine prenatally (Example 5); type: in vivo; conditions: 2 mg/kg s.c. daily, first 10 postnatal days; tested postnatal days 31-35; vs saline (data not shown)
[7] = test system: rat pups chronically exposed to morphine prenatally; type: in vivo, Sprague-Dawley rats; conditions: 2 mg/kg s.c. daily, first 10 postnatal days; survival measured for 15 days; vs saline (FIG. 2a)
[8] = test system: adolescent rats chronically exposed to morphine prenatally; assay: Passive Avoidance Test, adolescent rats exposed to morphine prenatally (Example 8); type: in vivo; conditions: 2 mg/kg s.c. daily, first 10 postnatal days; tested postnatal days 31-35; vs saline (FIG. 8b)
[9] = test system: adolescent rats chronically exposed to fluoxetine prenatally; assay: Passive Avoidance Test, adolescent rats exposed to fluoxetine prenatally (Example 5); type: in vivo; conditions: 2 mg/kg s.c. daily, first 10 postnatal days; tested postnatal days 31-35; vs saline (FIG. 5)
[10] = test system: rat pups chronically exposed to morphine prenatally; type: in vivo, Sprague-Dawley rats; conditions: all three doses (0.3, 1, 2 mg/kg) s.c. daily, first 10 postnatal days; vs saline (FIG. 6a)
healthy rats = assay: Survival and body weight during development in healthy rats (Example 14); type: in vivo, Sprague-Dawley rats; conditions: 0.3, 1 or 2 mg/kg daily, first 10 postnatal days; drug naive pups
[11] = test system: adolescent rats chronically exposed to diazepam prenatally; assay: Automated Three-Chamber Test, adolescent rats exposed to diazepam prenatally (Example 13); type: in vivo; conditions: first 10 postnatal days, tested postnatal days 31-35
Source text: (§1) Briefly, the Three-Chamber Test assesses cognition in the form of social novelty and social memory; Social novelty occurs in three sessions within a three-chambered box with openings between the chambers. After habituation to the empty box, the test animal encounters a novel conspecific under one pencil cup and an empty pencil cup. The test animal then encounters the familiar conspecific and a second novel conspecific under the previously empty pencil cup; Animals that show intact social novelty behavior will show a preference to investigate the novel conspecific; Twenty-four hours later, social memory is tested by placing the test animal back in to the chamber with the two familiar conspecifics; Animals with intact social memory will spend an equal amount of time investigating the two familiar conspecifics. Duration of time spent investigating conspecifics is measured automatically using a SmartCage™.

[12] = test system: adolescent rats chronically exposed to diazepam prenatally; assay: Passive Avoidance Test, adolescent rats exposed to diazepam prenatally (Example 12); conditions: all doses (0.3, 1, 2 mg/kg) s.c., first 10 postnatal days; tested postnatal days 31-35; vs saline (FIG. 12b)
Source text: Briefly, in the Passive Avoidance Test an animal learns to avoid an unpleasant stimulus by inhibiting locomotion and exploration; On the training day, rats are placed in a brightly lit compartment of a test chamber; The animal quickly moves in to an adjacent dark compartment of the test chamber and receives an unavoidable mild foot shock; Twenty-four hours later during the test phase, the animals are again placed in to the light compartment and the latency to re-enter the dark compartment is measured. Latency to enter a compartment is automatically measured using a SmartCage™.

[13] = test system: rat pups chronically exposed to diazepam prenatally; conditions: 2 mg/kg s.c. daily, first 10 postnatal days
[14] = test system: adolescent rats chronically exposed to morphine prenatally; assay: Automated Three-Chamber Test, adolescent rats exposed to morphine prenatally (Example 9); type: in vivo; conditions: first 10 postnatal days, tested postnatal days 31-35
Source text: as §1

[15] = test system: rat pups chronically exposed to diazepam prenatally; assay: Survival and body weight, three oxytocin doses, rat pups exposed to diazepam prenatally (Example 10); conditions: first 10 postnatal days
[16] = test system: adolescent rats chronically exposed to fluoxetine prenatally; assay: Locomotor activity, adolescent rats exposed to fluoxetine prenatally (Example 5); type: in vivo; conditions: 2 mg/kg s.c. daily, first 10 postnatal days; tested postnatal days 31-35; vs saline (data not shown)
[17] = test system: rat pups chronically exposed to morphine prenatally; assay: Locomotor activity during withdrawal, rats exposed to morphine prenatally (Example 7); type: in vivo
[18] = cited from earlier work
[19] = test system: infants of mothers who took the drug during the first 42 days of pregnancy; conditions: mothers took the drug during the first 42 days of pregnancy; other drugs 4.6 per 100, no drugs 2.6 per 100; cited from earlier work
oxytocin receptor [20] = target: T1, oxytocin receptor (Homo sapiens, UniProt P30559); conditions: cited from earlier work
oxytocin receptor [21] = target: T1, oxytocin receptor; conditions: cited from earlier work; remark: listed apart in the source
[22] = 1 or 2 mg/kg s.c. daily, vs saline (FIG. 7a)

T1 sequence (P30559 whole entry, species assumed): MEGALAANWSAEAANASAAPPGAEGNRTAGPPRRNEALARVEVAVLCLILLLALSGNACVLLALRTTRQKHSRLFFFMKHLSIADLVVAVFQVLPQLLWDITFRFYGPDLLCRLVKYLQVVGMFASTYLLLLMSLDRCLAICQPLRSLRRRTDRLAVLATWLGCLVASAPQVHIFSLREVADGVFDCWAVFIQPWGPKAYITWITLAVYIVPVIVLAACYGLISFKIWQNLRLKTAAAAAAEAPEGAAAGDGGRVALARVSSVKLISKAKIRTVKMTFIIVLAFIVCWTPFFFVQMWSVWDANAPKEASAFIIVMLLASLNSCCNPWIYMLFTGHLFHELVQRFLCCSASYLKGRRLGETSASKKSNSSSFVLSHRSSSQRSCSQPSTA

SMILES: CC[C@H](C)[C@@H]1NC(=O)[C@H](Cc2ccc(O)cc2)NC(=O)[C@@H](N)CSSC[C@@H](C(=O)N2CCC[C@H]2C(=O)N[C@@H](CC(C)C)C(=O)NCC(N)=O)NC(=O)[C@H](CC(N)=O)NC(=O)[C@H](CCC(N)=O)NC1=O [oxytocin]
- percentage survival rates ([1]; first 10 postnatal days, survival measured for 15 days, vs saline (FIG. 4a)): statistical trend towards improvement
- body weight at postnatal day 36 ([1]; first 10 postnatal days, vs saline (FIG. 4c)): clear statistically significant reduction
- body weights during the first 10 postnatal days ([1]; vs saline (FIG. 4b)): comparable
- locomotor activity on postnatal day 6 ([2]; 0.3 mg/kg and 2 mg/kg s.c. daily, vs saline (FIG. 11a)): clear statistically significant decrease
- locomotor activity on postnatal day 30 ([2]; 2 mg/kg s.c. daily, first 10 postnatal days, vs saline (FIG. 11b)): clear statistically significant decrease
- locomotor activity on postnatal day 9 ([2]; 2 mg/kg s.c. daily, vs saline (FIG. 11a)): clear statistically significant decrease
- locomotor activity on postnatal days 3 and 6 ([2]; all three doses (0.3, 1, 2 mg/kg) s.c. daily, vs saline): clear statistically significant decrease
- locomotor activity ([3]; single dose 2 mg/kg s.c. after naloxone, postnatal day one, up to 30 minutes post-naloxone, vs saline (FIG. 1a)): clear statistically significant reduction
- scores of rolling behavior ([3]; single dose 2 mg/kg s.c., up to 45 minutes, vs saline (FIG. 1b)): numerical reduction
- scores of curling behavior ([3]; single dose 2 mg/kg s.c., up to 45 minutes, vs saline (FIG. 1c)): numerical reduction
- percentage survival rates at postnatal day 10 ([3]; single dose 2 mg/kg s.c., vs saline (FIG. 1d)): improved percentage survival rates
- anxiety-like behavior (time in the light chamber) [4]: clear statistically significant decrease
- anxiety-like behavior (time in the light chamber) [5]: clear statistically significant reduction
- anxiety-like behavior [6]: No meaningful differences
- percentage survival rates [7]: clear statistically significant improvement
- learning and memory function (latency to enter chamber paired with foot shock) [8]: numerical improvement
- learning and memory function (latency to enter chamber paired with foot shock) [9]: clear statistically significant improvement
- percentage survival rates for the first 30 postnatal days [10]: clear statistically significant improvement
- survival for the first 30 postnatal days (healthy rats): survived for the first 30 postnatal days
- social memory function (time investigating a familiar conspecific) ([11]; 2 mg/kg s.c. daily, vs saline (FIG. 13b)): statistical trend toward improved social memory function
- social novelty behavior (time investigating a novel animal) ([11]; 1 and 2 mg/kg s.c. daily, vs saline (FIG. 13a)): clear statistically significant increase
- learning and memory function (latency to enter chamber paired with foot shock) [12]: clear statistically significant improvement
- percentage survival rates ([13]; survival measured for 15 days, vs saline (FIG. 3a)): clear statistically significant improvement
- body weight, various time points of the dosing period ([13]; vs saline (FIG. 3b)): clear statistically significant increase
- body weight at postnatal day 31 ([13]; vs saline (FIG. 3c)): clear statistically significant decrease
- social memory function (time investigating a familiar conspecific) ([14]; 2 mg/kg s.c. daily, vs saline (FIG. 9b)): statistical trend towards improved social memory function
- social novelty behavior (time investigating a novel conspecific) ([14]; all doses (0.3, 1, 2 mg/kg) s.c. daily, vs saline (FIG. 9a)): trend towards increased social novelty behavior
- percentage survival rates for the first 30 postnatal days ([15]; 2 mg/kg s.c. daily, vs saline (FIG. 10a)): clear statistically significant improvement
- body weight throughout the first 30 postnatal days ([15]; all three doses (0.3, 1, 2 mg/kg) s.c. daily, vs saline (FIG. 10b)): clear statistically significant decrease
- locomotor activity [16]: No meaningful differences
- locomotor activity at postnatal day 30 ([17]; 0.3, 1 or 2 mg/kg s.c. daily, first 10 postnatal days, between treatment groups (FIG. 7b)): No meaningful differences
- locomotor activity on postnatal day 6 [17, 22]: clear statistically significant increase
- locomotor activity on postnatal days 3 or 9 [17, 22]: not on postnatal days 3 or 9

SMILES: O=C1Nc2ccc(Cl)cc2C(c2ccccc2Cl)=NC1O (centres unmarked) [Lorazepam]
- half-life in adults ([18]; adults): about 12 hours

SMILES: CNC1=Nc2ccc(Cl)cc2C(c2ccccc2)=[N+]([O-])C1 [chlordiazepoxide, Chlordiazepoxide hydrochloride]
- severe congenital anomalies among infants [19]: 11.4 per 100

SMILES: CC[C@H](C)[C@@H]1NC(=O)[C@H](Cc2ccc(OC)cc2)NC(=O)CCCSC[C@@H](C(=O)N2CCC[C@H]2C(=O)N[C@@H](CC(C)C)C(=O)NCC(N)=O)NC(=O)[C@H](CC(N)=O)NC(=O)[C@H](CCC(N)=O)NC1=O [carbetocin, 1-Butanoic acid-2-(O-methyl-L-tyrosine)-1-carbaoxytocin] (Y(Me)IQNCPLG-NH2; linker N-5 via X1)
- biological effect relative to endogenous or exogenous oxytocin (oxytocin receptor [20]): ~50%
- affinity of the oxytocin receptor, compared with oxytocin (oxytocin receptor [21]): equal affinity

SMILES: Cc1nnc2n1-c1ccc(Cl)cc1C(c1ccccc1)=NC2 [Alprazolam]
- half-life ([18]; in vivo): ten to 24
